The subject of this assay is 699152-130-R-J1-PDC complex spheroid growth. As to the kind of experiment: Anticancer human tumor 699152-130-R-J1-PDC patient-derived pancreatic carcinoma cell line growth inhibition [AhR]. The conditions noted are these: for IC50: curve of first compound; for viability, T/C: stronger effect = lower value. Put shortly: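 Agents were dosed in half-log steps down from roughly clinical Cmax, or from 10 microM where Cmax was unknown, alone and with AhR antagonists. Read-out: percent test/control growth of tumor spheroids containing HUVEC and MSC stromal cells.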

[1] abbreviates: second compound 0.1 µM, first compound 0.0316 µM.
The mark [2] stands for this setting: second compound 0.1 µM, first compound 0.1 µM.
Where [3] appears, read: second compound 0.1 µM, first compound 0.316 µM.
Setting [4] is: second compound 0.1 µM, first compound 1 µM.
[5] abbreviates: second compound 0.316 µM, first compound 0.0316 µM.
[6] abbreviates: second compound 0.316 µM, first compound 0.1 µM.
Setting [7] is: second compound 0.316 µM, first compound 0.316 µM.
Setting [8] is: second compound 0.316 µM, first compound 1 µM.
[9] abbreviates: second compound 1 µM, first compound 0.0316 µM.
The mark [10] stands for this setting: second compound 1 µM, first compound 0.1 µM.
Where [11] appears, read: second compound 1 µM, first compound 0.316 µM.
The mark [12] stands for this setting: second compound 1 µM, first compound 1 µM.
Setting [13] is: second compound 3.16 µM, first compound 0.0316 µM.
Setting [14] is: second compound 3.16 µM, first compound 0.1 µM.
Where [15] appears, read: second compound 3.16 µM, first compound 0.316 µM.
[16] abbreviates: second compound 3.16 µM, first compound 1 µM.
[17] abbreviates: second compound 10 µM, first compound 0.0316 µM.
[18] abbreviates: second compound 10 µM, first compound 0.1 µM.
Where [19] appears, read: second compound 10 µM, first compound 0.316 µM.
[20] abbreviates: second compound 10 µM, first compound 1 µM.

Values joined by “and” are separate entries in the source; they are usually repeats but may differ in a detail not shown here. Equal entries are not always repeated. Some results are limits rather than exact numbers.
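Further: compound exposure lasted 7 days after spheroids had grown for 3 days.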

Broadly, the IC50 is the midpoint of a concentration-inhibition curve. By viability, T/C is commonly meant the ratio of treated to control. As to `Nc1ncn(C2CC(O)C(CO)O2)c(=O)n1` (configuration not stated) + CC(CO)NC(=O)c1cc(-c2ccc(Cl)cc2)nn(-c2cnn(C)c2)c1=O, the IC50 by setting is: (second compound 0.1 µM) over 1000 nM; (second compound 0.316 µM) over 1000 nM; (second compound 1 µM) over 1000 nM; (second compound 3.16 µM) over 1000 nM; (second compound 10 µM) over 1000 nM. Further, the viability, T/C runs as follows: (second compound 0.1 µM, first compound 0.00316 µM) 90.2%; (second compound 0.1 µM, first compound 0.01 µM) 100%; under setting [1], 97%; under setting [2], 102%; under setting [3], 96.9%; under setting [4], 93.3%. Moreover, the viability, T/C is, setting by setting: (second compound 0.316 µM, first compound 0.00316 µM) 89.5%; (second compound 0.316 µM, first compound 0.01 µM) 100%; under setting [5], 86.7%; under setting [6], 87.2%; under setting [7], 87.8%; under setting [8], 72.2%. In addition, the viability, T/C was 112% (second compound 1 µM, first compound 0.00316 µM); 103% (second compound 1 µM, first compound 0.01 µM); 107% under setting [9]; 87.7% under setting [10]; 77.7% under setting [11]; 82.3% under setting [12]. The viability, T/C was 75.4% (second compound 3.16 µM, first compound 0.00316 µM); 87.6% (second compound 3.16 µM, first compound 0.01 µM); 82.2% under setting [13]; 82.1% under setting [14]; 81% under setting [15]; 70% under setting [16]. Also, the viability, T/C is, setting by setting: (second compound 10 µM, first compound 0.00316 µM) 85.8%; (second compound 10 µM, first compound 0.01 µM) 85.3%; under setting [17], 79.9%; under setting [18], 70%; under setting [19], 66.6%; under setting [20], 77.1%.

Take `Nc1ccn(C2OC(CO)C(O)C2(F)F)c(=O)n1` (configuration not stated): the viability, T/C runs as follows: (compound 0.0316 µM) 74.1% and 75.2% and 60.5%; (compound 0.1 µM) 65.7% and 65.9% and 56.8%; (compound 0.316 µM) 48.5% and 56.9% and 47.4%; (compound 1 µM) 51.8% and 50.9% and 45.2%; (compound 3.16 µM) 42.4% and 53.5% and 42.6%; (compound 10 µM) 39.8% and 48.5% and 36.5%.

Consider `Cc1cncc(-c2nc(NCCc3c[nH]c4ccccc34)c3ncn(C(C)C)c3n2)c1`, for which the viability, T/C (compound 0.1 µM) is 97.9% [middle of 20 runs].

For `CC1(C)CCC(CN2CCN(c3ccc(C(=O)NS(=O)(=O)c4ccc(NCC5CCOCC5)c([N+](=O)[O-])c4)c(Oc4cnc5[nH]ccc5c4)c3)CC2)=C(c2ccc(Cl)cc2)C1` + Cc1ccccc1N=Nc1ccc(NC(=O)c2ccnn2C)c(C)c1, the IC50 is over 10000 nM (second compound 0.1 µM); over 10000 nM (second compound 0.316 µM); over 10000 nM (second compound 1 µM); over 10000 nM (second compound 3.16 µM); over 10000 nM (second compound 10 µM). The viability, T/C is 93.7% under setting [1]; 102% under setting [2]; 103% under setting [3]; 95.9% under setting [4]; 101% (second compound 0.1 µM, first compound 3.16 µM); 68% (second compound 0.1 µM, first compound 10 µM). Also, the viability, T/C reads like this: under setting [5], 93.2%; under setting [6], 103%; under setting [7], 95.9%; under setting [8], 95.5%; (second compound 0.316 µM, first compound 3.16 µM) 93.5%; (second compound 0.316 µM, first compound 10 µM) 74%. The viability, T/C is 103% under setting [9]; 101% under setting [10]; 104% under setting [11]; 102% under setting [12]; 101% (second compound 1 µM, first compound 3.16 µM); 65.8% (second compound 1 µM, first compound 10 µM). The viability, T/C under setting [13] is 107%; the viability, T/C under setting [14] is 95.2%; the viability, T/C under setting [15] is 118%; the viability, T/C under setting [16] was 102%; the viability, T/C (second compound 3.16 µM, first compound 3.16 µM) is 86.5%; the viability, T/C (second compound 3.16 µM, first compound 10 µM) is 71.8%. Moreover, the viability, T/C was 114% under setting [17]; 124% under setting [18]; 118% under setting [19]; 113% under setting [20]; 108% (second compound 10 µM, first compound 3.16 µM); 68.2% (second compound 10 µM, first compound 10 µM).

Regarding `CC(C)CC(NC(=O)C(Cc1ccccc1)NC(=O)c1cnccn1)B(O)O` (configuration not stated) + CC(CO)NC(=O)c1cc(-c2ccc(Cl)cc2)nn(-c2cnn(C)c2)c1=O, the IC50 by setting is: (second compound 0.1 µM) 5.84 nM; (second compound 0.316 µM) 5.84 nM; (second compound 1 µM) 5.39 nM; (second compound 3.16 µM) 5.46 nM; (second compound 10 µM) 5.13 nM. For the same compound, the viability, T/C reads like this: (second compound 0.1 µM, first compound 0.000949 µM) 91.3%; (second compound 0.1 µM, first compound 0.003 µM) 102%; (second compound 0.1 µM, first compound 0.00949 µM) 16%; (second compound 0.1 µM, first compound 0.03 µM) 1.65%; (second compound 0.1 µM, first compound 0.0949 µM) 10.5%; (second compound 0.1 µM, first compound 0.3 µM) 0.88%. The viability, T/C reads like this: (second compound 0.316 µM, first compound 0.000949 µM) 92.5%; (second compound 0.316 µM, first compound 0.003 µM) 115%; (second compound 0.316 µM, first compound 0.00949 µM) 10.9%; (second compound 0.316 µM, first compound 0.03 µM) 0.58%; (second compound 0.316 µM, first compound 0.0949 µM) 0.4%; (second compound 0.316 µM, first compound 0.3 µM) 0.53%. In addition, the viability, T/C is 100% (second compound 1 µM, first compound 0.000949 µM); 86.1% (second compound 1 µM, first compound 0.003 µM); 15.2% (second compound 1 µM, first compound 0.00949 µM); 3.08% (second compound 1 µM, first compound 0.03 µM); 0.35% (second compound 1 µM, first compound 0.0949 µM); 0.5% (second compound 1 µM, first compound 0.3 µM). Moreover, the viability, T/C is, setting by setting: (second compound 3.16 µM, first compound 0.000949 µM) 80.9%; (second compound 3.16 µM, first compound 0.003 µM) 92.5%; (second compound 3.16 µM, first compound 0.00949 µM) 16.2%; (second compound 3.16 µM, first compound 0.03 µM) 1.89%; (second compound 3.16 µM, first compound 0.0949 µM) 1.77%; (second compound 3.16 µM, first compound 0.3 µM) 5.12%. Also, the viability, T/C was 74.7% (second compound 10 µM, first compound 0.000949 µM); 90.8% (second compound 10 µM, first compound 0.003 µM); 12.6% (second compound 10 µM, first compound 0.00949 µM); 1.86% (second compound 10 µM, first compound 0.03 µM); 0.41% (second compound 10 µM, first compound 0.0949 µM); 0.56% (second compound 10 µM, first compound 0.3 µM).

The values are drawn from PubChem BioAssay AID1919001 (Molecular Pharmacology Branch, DTP, NCI, 2023).
